B1: NMW(Y6) mRNA: mRNA (RNA vaccine) from template cDNA Sequence No. 31, encoding long chain peptide antigen NMW with Y6 interepitope sequence (nucleic acid)
DNA: GGATCCATGAGCCTCCTGATGTGGATTACCCAATGCTATTACTACTATTACTACAACTATAAGAGATGTTTCCCCGTGATCTATTACTACTACTACTATTGCTATACATGGAATCAGATGAACCTGTGAGAATTC
modifications: mRNA transcribed from template cDNA; DNA sequence of a long chain peptide antigen, containing three types of human CD8+ T cell recognition epitope sequences (NY p157, MA4 p143, and WT1 p235)

Tests used:
[1] = system: NY p81 specific CD8+ T cells; assay: Specific CD8+ T cell induction in mice, intracellular cytokine staining (NY p81 epitope); type: in vivo, BALB/c mice; conditions: FIG. 5; ESO1 LP vaccines complexed with CHP, CpG oligo DNA
Excerpt: (§1) A long chain peptide antigen ESO1 LP (native type) (Sequence No. 16) and a long chain peptide antigen ESO1 LP (Y6) (Sequence No. 17), both containing a mouse CD8+ T cell epitope sequence (NY p81 or NY p82) and a mouse CD4+ T cell epitope sequence (NY p91) that are derived from human NY-ESO-1 antigen, were synthesized. As the interepitope sequence between epitopes, the native amino acid sequence of NY-ESO-1 was retained in the ESO1 LP (native type) and the sequence of six consecutive tyrosines (Y6) was used in the ESO1 LP (Y6). Vaccines containing the respective long chain peptide antigens were administered to mice in the same manner as in FIG. 1 and the frequencies of CD8+ T cells and CD4+ T cells specific to the respective epitope sequences were measured by the intracellular cytokine staining method.
(§2) Long chain peptide antigens MEN, all containing three types of mouse CD8+ T cell epitope sequences (MA p265 (Sequence No. 27), NY p81 (Sequence No. 29), and mERK2 9m (Sequence No. 28)), were synthesized. The interepitope sequences between the respective epitopes were one to six consecutive tyrosines (Sequence Nos. 1 and 9-12). Vaccines containing the respective long chain peptide antigens were administered to mice in the same manner as in FIG. 1 and the frequencies of CD8+ T cells specific to the respective epitope sequences were measured by the intracellular cytokine staining method.
as §2, with “five” for “one”, “ten” for “six”, “13-15).” for “9-12).”, “method. […]” for “method.”

[2] = system: NY p91 specific CD4+ T cells; assay: Specific CD4+ T cell induction in mice, intracellular cytokine staining (NY p91 epitope); type: in vivo, BALB/c mice; conditions: FIG. 5; ESO1 LP vaccines complexed with CHP, CpG oligo DNA
Excerpt: as §1
Each CHP/long chain peptide complex as the vaccine and the CpG oligo DNA as the adjuvant were administered at the same time to a mouse. Administration was performed by subcutaneous injection on the back of the mouse. As the dose, the CHP/long chain peptide complex was administered at 0.05 to 0.1 mg equivalent of long chain peptide per administration. […]
The mouse spleen cells were added at 5×10^6 cells/0.5 mL per well to a 24-well culture plate (Nunc). […] The cells were analyzed by a flow cytometer (FACS Canto II, BD Biosciences) using the included analysis software (FACSDiva).

CD8+ T cell = conditions: compared with NY p81; Non-Patent Document 8; cited from earlier work
[3] = system: NY p157 specific CD8+ T cell clone 1G4 cells; assay: Antigen presentation by LCL electroporated with mRNA vaccine, IFN-γ ELISPOT (1G4); type: cell-based, human; conditions: FIG. 11; mRNA introduced into LCL by electroporation
Description: (§3) The interepitode sequences between the respective epitopes were the six consecutive amino acids shown in FIG. 11, namely sequence Nos. 31-34. Each mRNA was introduced in vitro as a vaccine into LCL by electroporation. Using these LCL as the antigen-presenting cells, they were co-cultured with CD8+ T cell clone 1G4 cells specific to NY p157 or CD8+ T cell clone RNT007#45 cells specific to MA4 p143 and the activation of the CD8+ T cells due to antigen presentation was measured by the IFN-γ ELISPOT method.
(§4) mRNA was introduced by an electroporation method (300V, 700 μs) using ECM830 into LCL that was rinsed and suspended in the same manner as in (9). The cells were cultured for 24 hours at 37° C. in the presence of 5% CO2 and then used as antigen-presenting cells.
(§5) 75 μL aliquots of anti-IFN-γ antibody for capture, diluted to an appropriate concentration, were dispensed into a 96-well plate (Millipore Corp., Multiscreen HA, MAHAS4510) specially designed for ELISPOT and left to stand overnight at 4° C. After discarding the liquid and rinsing with RPMI medium, 100 μL aliquots of RPMI medium containing 10% fetal bovine serum were dispensed and the plate was left to stand for not less than 1 hour at 37° C. The liquid was discarded, and the LCL prepared in (9) or (10) was adjusted to 5×10^4 cells/100 μL/well and added to each well. […]

[4] = system: MA4 p143 specific CD8+ T cell clone RNT007 #45 cells; assay: Antigen presentation by LCL electroporated with mRNA vaccine, IFN-γ ELISPOT (RNT007 #45); type: cell-based, human; conditions: FIG. 11; mRNA introduced into LCL by electroporation
Description: as §3, §4, §5

Molecule	induction of NY p81 specific CD8+ T cells [1]	induction of NY p91 specific CD4+ T cells [2]	immunogenicity (CD8+ T cell)	activation of 1G4 cells [3]	activation of RNT007 #45 cells [4]
GARGPESRLLEFYLAMPFATPMEAELARRSLAQDAPPLPV [ESO1 LP (native type), reference compound]	hardly observed	clearly observed			
GPESRLL (Peptide sequence containing mouse CD8+ T cell epitope, NY p82)			poorer in immunogenicity than NY p81		
GPESRLLYYYYYYYLAMPFATPMEAELARRSLA (Long chain peptide antigen, containing a mouse CD8+ T cell epitope sequence (NY p81) and a mouse CD4+ T cell epitope sequence (NY p91)) [ESO1 LP (Y6)]	significant	clearly observed			
B1				clearly confirmed	clearly confirmed
